Reference: ChEMBL document CHEMBL5113373, “Tryptophan derived natural marine alkaloids and synthetic derivatives as promising antimicrobial agents” (Eur J Med Chem, 2021)
Values after ≈ are worked out from the molar mass of the structure shown.

Key:
Candida albicans [1] = test: Antifungal activity against Candida albicans assessed as fungal growth inhibition; assay type: functional, organism-based
Aspergillus niger = test: Antifungal activity against Aspergillus niger assessed as fungal growth inhibition; assay type: functional, organism-based
[2] = system: Trichophyton mentagrophytes; test: Antifungal activity against Trichophyton mentagrophytes assessed as fungal growth inhibition; assay type: functional, organism-based
Cryptococcus neoformans = test: Antifungal activity against Cryptococcus neoformans assessed as fungal growth inhibition; assay type: functional, organism-based
Staphylococcus aureus [3] = test: Antibiofilm activity against Methicillin-resistant Staphylococcus aureus B1 assessed as inhibition of biofilm formation measured after 24 to 48 hrs by MTT assay; assay type: functional; details: time 24-48 hrs
Enterococcus faecalis = test: Antibiofilm activity against Vancomycin-resistant Enterococcus faecalis W1 assessed as inhibition of biofilm formation measured after 24 to 48 hrs by MTT assay; assay type: functional; details: time 24-48 hrs
Staphylococcus aureus [4] = test: Antibacterial activity against Staphylococcus aureus ATCC 16339 assessed as bacterial growth inhibition incubated for 24 hrs by broth micro dilution method; assay type: functional
Fusarium oxysporum = test: Antifungal activity against Fusarium oxysporum Momordicae assessed as fungal growth inhibition incubated for 3 days by broth micro dilution method; assay type: functional; details: 72 h, time 3 day
Acinetobacter baumannii [5] = test: Antibacterial activity against Acinetobacter baumannii ATCC 19606 assessed as bacterial growth inhibition incubated for 24 hrs by broth micro dilution method; assay type: functional
Acinetobacter baumannii [6] = test: Antibacterial activity against Acinetobacter baumannii ATCC 15122 assessed as bacterial growth inhibition incubated for 24 hrs by broth micro dilution method; assay type: functional
Klebsiella pneumoniae = test: Antibacterial activity against Klebsiella pneumoniae ATCC 14578 assessed as bacterial growth inhibition incubated for 24 hrs by broth micro dilution method; assay type: functional
Acinetobacter baumannii [7] = test: Antibiofilm activity against Acinetobacter baumannii ATCC 19606 assessed as inhibition of biofilm formation at 100 uM incubated for 24 hrs by crystal violet method relative to control; assay type: functional; parameters: scale not given: the % may be the effect or the level left
Hepatitis C virus = test: Antiviral activity against HCV J8CC infected in human Huh7.5 cells assessed as viral growth inhibition incubated for 48 hrs by light microscopy; assay type: functional, organism-based, Hepacivirus hominis; details: Huh7.5, 48 h
Micrococcus luteus [8] = test: Antibacterial activity against Micrococcus luteus assessed as bacterial growth inhibition; assay type: functional, organism-based
Staphylococcus aureus [9] = test: Antibacterial activity against Staphylococcus aureus assessed as bacterial growth inhibition; assay type: functional, organism-based
Bacillus subtilis = test: Antibacterial activity against Bacillus subtilis assessed as bacterial growth inhibition; assay type: functional, organism-based
Escherichia coli [10] = test: Antibacterial activity against Escherichia coli assessed as bacterial growth inhibition by agar dilution method; assay type: functional
Klebsiella aerogenes = test: Antibacterial activity against Enterobacter aerogenes assessed as bacterial growth inhibition by agar dilution method; assay type: functional
Staphylococcus aureus [11] = test: Antimicrobial activity against methicillin-resistant Staphylococcus aureus assessed as microbial growth inhibition by broth microdilution method; assay type: functional
Vibrio natriegens [12] = test: Antimicrobial activity against Vibrio natriegens ATCC 14048 assessed as inhibition of bacterial adhesion incubated for 48 hrs by crystal staining method; assay type: functional
Vibrio natriegens [13] = test: Antimicrobial activity against Vibrio natriegens ATCC 14048 assessed as microbial growth inhibition incubated for 48 hrs by spectrophotometry; assay type: functional
[14] = Inhibition of Methicillin-resistant Staphylococcus aureus pyruvate kinase assessed as measuring absorbance of NADH coupled to L-LDH using phospho enol pyruvate in presence of ADP by spectrophotometry
Corynebacterium xerosis = test: Antimicrobial activity against Corynebacterium xerosis assessed as microbial growth inhibition; assay type: functional
Micrococcus luteus [15] = test: Antimicrobial activity against Sarcina lutea assessed as microbial growth inhibition; assay type: functional
Escherichia coli [16] = test: Antimicrobial activity against Escherichia coli assessed as microbial growth inhibition by microdilution method; assay type: functional
Candida albicans [17] = test: Antimicrobial activity against Candida albicans assessed as microbial growth inhibition by microdilution method; assay type: functional
Staphylococcus aureus [18] = test: Antibiofilm activity against Staphylococcus aureus ATCC 25923 assessed as inhibition of biofilm formation incubated for 24 hrs by crystal violet method; assay type: functional, organism-based; details: ATCC 25923, 24 h
Staphylococcus aureus [19] = test: Antimicrobial activity against Staphylococcus aureus ATCC 25923 assessed as zone of inhibition incubated for 24 hrs by disc diffusion method; assay type: functional
[20] = system: Mycobacterium tuberculosis; test: Antibacterial activity against […] assessed as bacterial growth inhibition; assay type: functional
Candida albicans [21] = test: Antimicrobial activity against Candida albicans ATCC 14053 assessed as zone of inhibition incubated for 24 hrs by disc diffusion method; assay type: functional
Pyricularia oryzae = test: Antifungal activity against Pyricularia oryzae assessed as fungal growth inhibition incubated for 16 hrs by inverted microscopy; assay type: functional

Work on `Cn1cc(C(=O)c2nc(C(=O)O)cc3c2[nH]c2ccc(O)cc23)[n+](C)c1` yielded an IC50 (Candida albicans [1]) of 45.7 µM, an IC50 (Aspergillus niger) of 22.8 µM and an IC50 [2] of 45.7 µM. For the same compound, the IC50 (Cryptococcus neoformans) was 11.4 µM.
For `O=C(O)[C@@H]1Cc2c[nH]c3ccc4oc5nc6ccc(O)cc6c-5c(c4c23)N1`, the IC50 (Candida albicans [1]) was 2.8 µM and the IC50 (Cryptococcus neoformans) was 11.1 µM.
In the case of `CC(C)[C@@H]1NC(=O)[C@@H](C[C@]2(O)c3ccccc3N3C(=O)[C@@H](C)N[C@H]32)n2c1nc1ccccc1c2=O`, the BIC (Staphylococcus aureus [3]) is reported as 202.7 µM and the BIC (Enterococcus faecalis) is reported as 168.9 µM.
`O=C1N[C@]2(CO)c3[nH]c4ccccc4c3C[C@@H]1n1c2nc2ccccc2c1=O` gave an MIC (Staphylococcus aureus [4]) of 16.8 µM (≈ 6.26 µg/mL), an MIC (Fusarium oxysporum) of 4 µM (≈ 1.49 µg/mL) and an MIC (Acinetobacter baumannii [5]) of 16.8 µM (≈ 6.26 µg/mL). For the same compound, the MIC (Acinetobacter baumannii [6]) was 16.8 µM (≈ 6.26 µg/mL) and the MIC (Klebsiella pneumoniae) was 16.8 µM (≈ 6.26 µg/mL).
`C=CC(C)(C)[C@@]12CCN(C)C1=Nc1cc(Br)ccc12` [FLUSTRAMINE C] showed an Activity (Acinetobacter baumannii [7]) of 30%.
With `CC1(C)C(=O)N2c3ccccc3[C@@]3(C[C@H]4n5c(nc6ccccc6c5=O)C(=O)C(C)(C)[C@@]4(O)O3)[C@@H]2N1S(C)(=O)=O` the EC50 (Hepatitis C virus) was 110 µM.
In the case of `C[N+](C)(C)CC(c1c[nH]c2cc(Br)ccc12)c1c(O)c(O)c2c3c(nccc13)C=CN2` (stereo unspecified), the IC50 (Micrococcus luteus [8]) is reported as 4.2 µM, the IC50 (Candida albicans [1]) is reported as 0.5 µM and the IC50 (Staphylococcus aureus [9]) is reported as 4.2 µM. It also gave an IC50 [2] of 0.5 µM, an IC50 (Bacillus subtilis) of 4.2 µM and an IC50 (Cryptococcus neoformans) of 0.5 µM.
Compound `Oc1ccc2nc3oc4ccc5[nH]cc6cc[nH]c(c-3c2c1)c4c65` has an IC50 (Candida albicans [1]) of 3.2 µM, an IC50 (Aspergillus niger) of 12.8 µM and an IC50 [2] of 51.1 µM. For the same compound, the IC50 (Cryptococcus neoformans) was 6.4 µM.
In the case of `CSc1c(-c2c(-c3c[nH]c4ccc(O)cc34)c(=O)n3c4ccc(O)cc4c4cc(C(=O)O)nc2c43)[n+](C)cn1C`, the IC50 (Candida albicans [1]) is reported as 14.5 µM and the IC50 (Cryptococcus neoformans) is reported as 14.5 µM.
For `CC(C)[C@H]1NC(=O)[C@@H]2CC3(C45C[C@H]6C(=O)N[C@H](C(C)C)C(=O)N6[C@H]4Nc4ccccc45)c4ccccc4N[C@@H]3N2C1=O` (stereo partly specified), the MIC (Escherichia coli [10]) was 44 µM (≈ 25 µg/mL) and the MIC (Klebsiella aerogenes) was 44 µM (≈ 25 µg/mL).
With `O=C(C1=N[C@@H](c2c[nH]c3cc(Br)ccc23)CN1)c1c[nH]c2ccccc12` the MIC (Staphylococcus aureus [11]) was 15.4 µM (≈ 6.27 µg/mL).
For `Brc1ccc2c(-c3c[nH]c(-c4c[nH]c5ccccc45)n3)c[nH]c2c1` [NORTOPSENTIN C], the IC50 (Candida albicans [1]) was 6.8 µM.
Work on `C/N=C1\NC(Cc2c[nH]c3cc(Br)ccc23)C(=O)N1C` (stereo unspecified) yielded an MIC (Vibrio natriegens [12]) of 298 µM (≈ 100 µg/mL) and an MIC (Vibrio natriegens [13]) of 0.03 µM (≈ 0.0101 µg/mL).
`O=C1NC[C@@H](c2c[nH]c3cc(Br)ccc23)N[C@H]1c1c[nH]c2cc(Br)ccc12` (relative stereo) [CIS-3,4-DIHYDROHAMACANTHIN B] gave an MIC (Staphylococcus aureus [11]) of 0.016 µM (≈ 0.00781 µg/mL) and an IC50 [14] of 5.1 µM.
`Cn1c[n+](C)c(C(=O)c2nc(C(=O)O)cc3c2[nH]c2ccc(O)cc23)c1[S+](C)[O-]` (stereo unspecified) showed an IC50 (Candida albicans [1]) of 4.8 µM.
Work on `O=C1N=C(C(=O)c2c[nH]c3ccc(Br)cc23)N/C1=C\c1c[nH]c2ccccc12` yielded an MIC (Corynebacterium xerosis) of 36.9 µM (≈ 16 µg/mL) and an MIC (Micrococcus luteus [15]) of 36.9 µM (≈ 16 µg/mL).
`Cc1cncc(Cc2c[nH]c3ccccc23)n1` gave an MIC (Staphylococcus aureus [11]) of 53.7 µM (≈ 12 µg/mL), an MIC (Escherichia coli [16]) of 35.8 µM and an MIC (Candida albicans [17]) of 62.7 µM.
Compound `COCCn1cc(-c2nc(-c3cn(C)c4ccccc34)cs2)c2cc(F)ccc21` has an IC50 (Staphylococcus aureus [18]) of 0.4 µM.
For `C[C@@H]1NC(=O)[C@@H](Cc2c[nH]c3ccccc23)n2c1nc1ccccc1c2=O` [FUMIQUINAZOLINE F], the MIC (Micrococcus luteus [8]) was 276 µM (≈ 99 µg/mL) and the MIC (Staphylococcus aureus [9]) was 382 µM (≈ 137 µg/mL).
In the case of `O=C1N[C@@H](Cc2c[nH]c3ccccc23)C(=O)N2CCC[C@@H]12` [BREVIANAMIDE F], the “diameter of the inhibition zone (DIZ)” value (Staphylococcus aureus [19]) is reported as 19 mm, the MIC [20] is reported as 44.1 µM (≈ 12.5 µg/mL) and the “diameter of the inhibition zone (DIZ)” value (Candida albicans [21]) is reported as 25 mm.
With `CC(=O)[C@H]1N=C(c2c[nH]c3ccc(O)cc23)c2c(O)ccc3[nH]cc(c23)[C@H]1O` the IC50 (Aspergillus niger) was 85.2 µM.
With `Brc1ccc2c(-c3c[nH]c(-c4c[nH]c5cc(Br)ccc45)n3)c[nH]c2c1` [NORTOPSENTIN A] the IC50 (Candida albicans [1]) was 6.8 µM.
`O=C1CN=C(c2c[nH]c3ccc(O)cc23)c2c(O)ccc3[nH]cc1c23` showed an IC50 [2] of 48.3 µM.
Compound `CC(C)=CCn1cc(CC2NC(=O)C(C(C)C)NC2=O)c2ccccc21` (stereo unspecified) has an MIC (Pyricularia oryzae) of 0.36 µM (≈ 0.127 µg/mL).
